From US11529344B2, “EZH2 inhibitor combination therapies” (Pfizer Inc., priority 2017, dated 2022)

Test system: DMS114 SCLC xenograft
Excerpt: • (i) Compound Formulation: Compound 1 was formulated as a wet-milled nanosuspension (24 hr milling in 2.5% w/v polyvinyl pyrrolidone (PVP), 0.5% w/v Macrogol 15 Hydroxystearate (Kolliphor HS15) aqueous, with <1 μm particle-size distribution (PSD; ˜650 nm median diameter (d50)) for oral gavage administration. • (ii) Cell Implant, Compound Dosing and Tissue Collection: Immune deficient female mice with a severe combined immunodeficiency (SCID) mutation in a non-obese diabetic background (NOD SCID; 6 to 8 week old; NOD.CB17-Prkdcscid/NCrCrl from Charles River Laboratories) received a subcutaneous (SC) implant of 7.5×10^6 DMS114 cells (in 1:1 matrigel (Trevigen, Cultrex BME Path Clear®, Lot #: 30625F14), total volume 200 μl) into the right flank. Tumor volume and body weight were measured twice a week. On Day 20 post implant, 64 mice were randomized, based on tumor size at a geometric mean (geomean) of about 160 mm^3, into 6 groups corresponding to dose (Table 1). Compounds were administered at 10 ml/kg by oral gavage (Compound 1; BID ( 7/17 hours apart)) or intraperitoneal injection (cisplatin), respectively. The cisplatin dosing schedule was once a week for 3 weeks (Q7Dx3) and started 7 days after the randomization and treatment initiation with Compound 1.
On Day 55, study groups 1, 2, 3 and 4 were terminated (Table 1). Tumor (snap frozen) samples were collected at 4 hours post last dose for pharmacodynamic (PD) analysis. […] Tumor samples from groups 5 and 6 were collected 3 hours post last dose depending on available tumor sizes. All procedures performed on these animals were in accordance with regulations and established guidelines and were reviewed and approved by Pfizer's Institutional Animal Care and Use Committee. • (iii) Data Interpretation: For each experiment, calculations were performed and graphs created in Microsoft Excel and GraphPad Prism version 7.02 respectively. The tumor volume was calculated as 0.5×length×width^2. Tumor growth inhibition (TGI) was determined by the formula: % TGI=[1−(Vtx−Vt0/Vcx−Vc0)]×100, where Vc, Vt are the geometric means of control and treated groups. X=day X on study and 0=initial day of dosing. ELISA Assay: • (i) Histone Extraction: Histone extraction was performed using the EpiQuick Histone Extraction Kit (Epigentek OP0006). Frozen tumor samples were cut and homogenized using cold mortar and pestle on dry-ice. The homogenized mixture was transferred to a 1.5 mL tube in 1× Pre-Lysis Buffer (200 mg/mL) containing phenylmethylsulfonyl fluoride (PMSF). Samples were gently mixed, incubated on ice for 15 minutes, and spun down at 3,000 rpm for 5 minutes at 4° C. The tissue pellet was resuspended in 3 volumes (approximately 200 μL per 100 mg of tissue) of lysis buffer from the Histone Extraction Kit, incubated on ice for 30 minutes, and spun down at 12,000 rpm for 5 minutes at 4° C. Balance-DTT buffer was prepared by adding DTT Solution to balance buffer at a 1:500 ratio. The supernatant (containing acid soluble proteins) was transferred to a new 1.5 mL tube and 0.3 volumes of Balance-dithiothreitol (DTT) buffer from the Histone Extraction Kit were immediately added to each sample. The tumor lysate was briefly sonicated for 4 cycles (30 seconds on and 30 seconds off) at high intensity using the Bioruptor Plus (Diagenode #601020001). Extracts were aliquoted and stored at −20° C. (short term) or −80° C. (long term). Protein concentration was quantified using the Coomassie Plus (Bradford) Assay Kit (Thermo #23236). • (ii) H3K27Me3 and Me2 ELISA Assay: Histone extracts were diluted to a final concentration of 400 ng (or 800 ng) in 100 μL of coating buffer (phosphate buffered saline (PBS) containing 0.05% bovine serum albumin (BSA)).

## N.N.[Cl][Pt][Cl] [cisplatin, reference compound]
Compound 1 100 mg/kg BID PO, cisplatin 4 mg/kg IP Q7Dx3, alone or combined
  TGI by Day 55: 51%
Day 55, Compound 1 100 mg/kg BID, cisplatin 4 mg/kg Q7Dx3
  tumors regressed or progressed compared to the starting tumor burden: all tumors had progressed
Post Day 55, Compound 1 maintenance dosing in combination arm, no further treatment in cisplatin arm
  tumor regression sustained after cisplatin discontinuation: progressed
Survival cut-off at 500 mm^3 tumor burden
  survival benefit, Log-rank test (Mantel-Cox): did not reach the P<0.05 significance level
Survival cut-off at 500 mm^3 tumor burden, Compound 1 100 mg/kg BID, cisplatin 4 mg/kg Q7Dx3
  median survival: 37.5 days
